Laboratory results reported in patent US20100179098A1, “FUROST-5-ENE-3, 22, 26-TRIOL GLYCOSIDE COMPOUND FOR PREVENTING AND TREATMENT CANCER” (priority 2006, published 2010).
Like-named read-outs stand apart in the source and are kept apart here.

How the values were obtained:
[1] = tested on: Colon, HT-29; assay: alamarBlue cancer cell inhibition, HT-29; assay type: cell-based; conditions: HT-29, 72 hours
Description: (§1) Each suspension of various cancer cell lines was inoculated in a 96-well cultural plate and incubated at 37° C. under 5% carbon dioxide for 24 hours. Then, 100 μL of medium and 2 μl of different concentrations (100, 10, 1, 0.1 and 0.01 μM) of dichotomin (PK-22-1) were added therein. In addition, the cancer cells treated with a control drug, mitomycin, were incubated and treated in the same manner. After 72 hours of incubation, 20 μl of alamarBlue reagent was added into each well and the cells were incubated for another 6 hours. Cell densities were detected with a fluorescence detector, GENios equipped with a microreader, using an exciting wavelength of 530 nm and an emission wavelength of 590 nm. The IC50 value means the concentration at which the experimental drug reduces the cell numbers by 50% at the end of the experiment. This value represents the inhibition activity of the test drugs.

[2] = tested on: Liver, Hep 3B; assay: alamarBlue cancer cell inhibition, Hep 3B; assay type: cell-based; conditions: 72 hours
Description: as §1

[3] = tested on: Lung, A549; assay: alamarBlue cancer cell inhibition, A549; assay type: cell-based; conditions: A549, 72 hours
Description: as §1

[4] = tested on: GP7TB cells; assay: Growth inhibition (cell number), GP7TB; assay type: cell-based, rat; conditions: for Amount of Cells: GP7TB, mean of triplicate; for IC50: Rattus norvegicus, GP7TB cells, read-out: 50% inhibition concentration (IC50)
Description: Rat liver cancer cell line GP7TB and human liver cancer cell line Huh-7 and HepG2 at 10^4 cells each were seeded in individual wells of a 96-well cultural plate. After overnight incubation, different concentrations of the extracts were added therein for 24 hours. Subsequently, the medium was discarded, and the medium with 20 μl/ml of MTS was added for 1 hour. Since MTS reagent contains 3-(4,5-dimethylhiazol-2-yl)-5-(3-carboxymethoxyphenyl)-2-(4-sulfophenyl)-2H-tetrazolium, which could be metabolized by NADH or NADPH dehydrogenase in living cells to a formazan product, cellular survival rates could be estimated from different readings at 490 nm.
The experiments were performed in triplicate and the results were performed by average calculation.

[5] = tested on: GP7TB cells; assay: In vivo growth inhibition of rat liver tumor by intratumoral injection
Description: The back of each rat was injected subcutaneously with 3×10^6 cells of GP7TB cells. The tumor grows up to 0.3 cm in diameter after about one week. A single dose of dichotomin (PK-22-1, 2.0 mg/kg) or the control buffer (PBS) was directly injected into the tumor once every day for 8 consecutive days. The tumor size was measured, and the cancer cell growth inhibition effects of the control group and dichotomin treated group were compared.

[6] = tested on: GP7TB cells; assay: Nuclear DNA fragmentation (agarose gel electrophoresis), GP7TB; assay type: cell-based, rat; conditions: 12.5 μg/ml, 48 hours
Description: To understand the GP7TB cell growth inhibition mechanism of the active components and the extracts, GP7TB cells were treated with the extracts and dichotomin at a constant concentration of 12.5 μg/ml for 48 hours. The cellular DNA was extracted and analyzed with agarose gel electrophoresis. […] Therefore, it could be concluded that dichotomin could induce apoptosis of the abovementioned cell lines.

[7] = tested on: HepG2 cells; assay: Nuclear DNA fragmentation (agarose gel electrophoresis), HepG2; assay type: cell-based, human; conditions: HepG2, 12.5 μg/ml, 48 hours
[8] = tested on: GP7TB cells; assay: Ex-vivo anti-tumor experiment: pretreated GP7TB cells grafted in F344 rats; design: species or system rat; conditions: GP7TB cells pretreated 12.5 μg/ml 24 hours; 5×10^6 cells S.C.; after three weeks
Description: GP7TB cells (3×10^6 cells each) were incubated in several 10-cm cultural dishes and treated with dichotomin (PK-22-1) or the extract without dichotomin (PK-22-3) at a concentration of 12.5 μg/ml for 24 hours. These cells were collected. GP7TB cells, PK-22-1-treated GP7TB cells, and PK-22-3-treated GP7TB cells (5×10^6 cells each) were separately injected subcutaneously at three different locations on the back of each F344 rat. […] The tumor sizes of rats inoculated with GP7TB cells treated with the extract PK-22-3 without dichotomin were the same as those of rats treated with GP7TB cells (control group).

## CO[C@@]12[C@H](COC(N)=O)C3=C(C(=O)C(C)=C(N)C3=O)N1C[C@@H]1N[C@@H]12 [Mitomycin, reference compound]
[1]; Homo sapiens
  IC50: 330 nM
[2]; Homo sapiens, Hep3B
  IC50: 40 nM
[3]; Homo sapiens
  IC50: 160 nM

## (25R)-26-O-beta-D-glucopyranosyl-22-hydroxy-5-ene-furostan-3beta, 26-diol-3-O-alpha-L-rhamnopyranosyl-(1→4)-alpha-L-rhamnopyranosyl-(1→4)-[alpha-L-rhamnopyranosyl-(1→2)]-beta-D-glucopyranoside [PK-22-1]
[4]; 1 μg/ml
  Amount of Cells: 1.30 × 10^5 cells/ml
[4]; 2 μg/ml
  Amount of Cells: 4.60 × 10^4 cells/ml
[4]; 4 μg/ml
  Amount of Cells: 2.00 × 10^4 cells/ml
[4]; 6 μg/ml
  Amount of Cells: 1.10 × 10^4 cells/ml
[4]; 8 μg/ml
  Amount of Cells: 5.00 × 10^4 cells/ml
[4]; 10 μg/ml
  Amount of Cells: 3.00 × 10^3 cells/ml
[4]; 12 μg/ml
  Amount of Cells: 1.60 × 10^3 cells/ml
[5]; 2.0 mg/kg into the tumor once daily for 8 days, volume = 0.52 × length × width × height
  Tumor volume after injection (Day 8): (0.692 cm^3)
[5]; 2.0 mg/kg intratumoral, 8 days
  Apoptosis of cancer cells in tumor (pathological section): exhibited apoptosis
[5]; 2.0 mg/kg intratumoral, 8 days, vs PBS
  Tumor size relative to the control group: only half the size
[5]; baseline, volume = 0.52 × length × width × height
  Tumor volume before injection (Day 0): (0.142 cm^3)
[5]; tumor volume Day 8 vs Day 0, 2.0 mg/kg intratumoral, PBS control 9.26
  Growth (folds): 4.87 folds
[6]
  Nuclear DNA fragmentation: most notable effects
[7]
  Nuclear DNA fragmentation: most notable effects
[8]
  Rats that did not form any tumor: six rats of the nine
  Tumor size relative to tumors from untreated GP7TB cells (control group): one sixth
[1]
  IC50: 7300 nM
[2]
  IC50: 8500 nM
[3]
  IC50: 840 nM

## COc1cccc2c1C(=O)c1c(O)c3c(c(O)c1C2=O)C[C@@](O)(C(=O)CO)C[C@@H]3O[C@H]1C[C@H](N)[C@H](O)[C@H](C)O1 [Adriamycin]
[4]; 1 μg/ml
  Amount of Cells: 7.80 × 10^4 cells/ml
[4]; 2 μg/ml
  Amount of Cells: 2.30 × 10^4 cells/ml
[4]; 4 μg/ml
  Amount of Cells: 2.00 × 10^4 cells/ml
[4]; 6 μg/ml
  Amount of Cells: 3.00 × 10^4 cells/ml
[4]; 8 μg/ml
  Amount of Cells: 2.50 × 10^4 cells/ml
[4]; 10 μg/ml
  Amount of Cells: 2.30 × 10^4 cells/ml
[4]; 12 μg/ml
  Amount of Cells: 1.60 × 10^4 cells/ml
[4]; by mass
  IC50: 1.54 µg/mL
[4]; molar
  IC50: 2660 nM
